# Literature values, collected in US9358223B2, “Formulation for preventing or reducing bleeding at a surgical site” (WARSAW ORTHOPEDIC, INC., priority 2009, dated 2016).
# Tested on: blood pressure
# Conditions: perioperative period, patients undergoing rhytidectomy
structure (smiles),measurement,value
"Clc1cccc(Cl)c1N=C1NCCN1 [Clonidine, 2,6-dichloro-N-2-imidazolidinyldenebenzenamine]",regulation of blood pressure,effectively regulate blood pressure
